Legend:
Assay in all cases: relative viability (nuclei count vs DMSO), 5 days (fraction); higher = more cells survive
[1] = tested on: A-427
In short: (§1)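 Relative viability divides the nuclei count in treated wells by that in vehicle wells. Lung cancer cell lines were seeded in 1536-well plates, dosed by pin tool the next day, and fixed and stained after 5 days in one step with final 0.05% Triton X-100, 1% formaldehyde and 1 ug/ml Hoechst. Dosing was a single drug or a fixed anchor-drug dose plus five library-drug doses (not always all listed) in √10 steps, and values are medians of duplicate plates imaged at 4×.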

[2] = tested on: BEN
In short: as §1

[3] = tested on: CAL-12T
In short: as §1

[4] = tested on: COR-L 105
In short: as §1

[5] = tested on: ChaGo-K-1
In short: as §1

[6] = tested on: EPLC-272H
In short: as §1

[7] = tested on: HOP-62
In short: as §1

[8] = tested on: LCLC-103H
In short: as §1

[9] = tested on: LU99A
In short: as §1

[10] = tested on: LXF-289
In short: as §1

[11] = tested on: NCI-H1395
In short: as §1

[12] = tested on: NCI-H1650
In short: as §1

[13] = tested on: NCI-H1666
In short: as §1

[14] = tested on: NCI-H1793
In short: as §1

[15] = tested on: NCI-H1975
In short: as §1

[16] = tested on: NCI-H1993
In short: as §1

[17] = tested on: NCI-H2009
In short: as §1

[18] = tested on: NCI-H2342
In short: as §1

[19] = tested on: NCI-H2347
In short: as §1

[20] = tested on: NCI-H358
In short: as §1

[21] = tested on: NCI-H441
In short: as §1

[22] = tested on: NCI-H460
In short: as §1

[23] = tested on: NCI-H650
In short: as §1

[24] = tested on: NCI-H727
In short: as §1

[25] = tested on: SK-MES-1
In short: as §1

Nc1cccc2c1CN(C1CCC(=O)NC1=O)C2=O (stereo unspecified) [Lenalidomide] + N=C(N)NC(=N)NCCc1ccccc1 [Phenformin] (partner 250 µM) was tested, and the relative viability ([1]; first compound 0.253 µM) was 0.317, the relative viability ([1]; first compound 0.8 µM) was 0.324 and the relative viability ([1]; first compound 2.53 µM) was 0.421. The relative viability ([1]; first compound 8 µM) was 0.311, the relative viability ([2]; first compound 0.253 µM) was 0.287 and the relative viability ([2]; first compound 0.8 µM) was 0.268. The relative viability ([2]; first compound 2.53 µM) was 0.285, the relative viability ([2]; first compound 8 µM) was 0.222 and the relative viability ([3]; first compound 0.253 µM) was 0.548. For the same compound, the relative viability ([3]; first compound 0.8 µM) was 0.633, the relative viability ([3]; first compound 2.53 µM) was 0.639 and the relative viability ([3]; first compound 8 µM) was 0.647. The relative viability ([4]; first compound 0.253 µM) was 0.464, the relative viability ([4]; first compound 0.8 µM) was 0.523 and the relative viability ([4]; first compound 2.53 µM) was 0.554. The relative viability ([4]; first compound 8 µM) was 0.513, the relative viability ([5]; first compound 0.253 µM) was 0.497 and the relative viability ([5]; first compound 0.8 µM) was 0.459. For the same compound, the relative viability ([5]; first compound 2.53 µM) was 0.636, the relative viability ([5]; first compound 8 µM) was 0.478 and the relative viability ([6]; first compound 0.253 µM) was 0.282. It also gave a relative viability ([6]; first compound 0.8 µM) of 0.341, a relative viability ([6]; first compound 2.53 µM) of 0.318 and a relative viability ([6]; first compound 8 µM) of 0.224. It also gave a relative viability ([7]; first compound 0.253 µM) of 0.611, a relative viability ([7]; first compound 0.8 µM) of 0.733 and a relative viability ([7]; first compound 2.53 µM) of 0.736. It also gave a relative viability ([7]; first compound 8 µM) of 0.705, a relative viability ([8]; first compound 0.253 µM) of 0.364 and a relative viability ([8]; first compound 0.8 µM) of 0.327. It also gave a relative viability ([8]; first compound 2.53 µM) of 0.352, a relative viability ([8]; first compound 8 µM) of 0.257 and a relative viability ([9]; first compound 0.253 µM) of 0.76. It also gave a relative viability ([9]; first compound 0.8 µM) of 0.875, a relative viability ([9]; first compound 2.53 µM) of 0.96 and a relative viability ([9]; first compound 8 µM) of 0.564. For the same compound, the relative viability ([10]; first compound 0.253 µM) was 0.536, the relative viability ([10]; first compound 0.8 µM) was 0.547 and the relative viability ([10]; first compound 2.53 µM) was 0.565. The relative viability ([10]; first compound 8 µM) was 0.58, the relative viability ([11]; first compound 0.253 µM) was 0.436 and the relative viability ([11]; first compound 0.8 µM) was 0.403. It also gave a relative viability ([11]; first compound 2.53 µM) of 0.508, a relative viability ([11]; first compound 8 µM) of 0.419 and a relative viability ([12]; first compound 0.8 µM) of 0.376. For the same compound, the relative viability ([12]; first compound 2.53 µM) was 0.554, the relative viability ([12]; first compound 8 µM) was 0.483 and the relative viability ([13]; first compound 0.253 µM) was 0.331. For the same compound, the relative viability ([13]; first compound 2.53 µM) was 0.635, the relative viability ([13]; first compound 8 µM) was 0.527 and the relative viability ([14]; first compound 0.253 µM) was 0.384. The relative viability ([14]; first compound 2.53 µM) was 0.515, the relative viability ([14]; first compound 8 µM) was 0.344 and the relative viability ([15]; first compound 0.253 µM) was 0.402. For the same compound, the relative viability ([15]; first compound 0.8 µM) was 0.35, the relative viability ([15]; first compound 2.53 µM) was 0.474 and the relative viability ([15]; first compound 8 µM) was 0.336. It also gave a relative viability ([16]; first compound 0.253 µM) of 0.429, a relative viability ([16]; first compound 0.8 µM) of 0.553 and a relative viability ([16]; first compound 2.53 µM) of 0.551. It also gave a relative viability ([16]; first compound 8 µM) of 0.516, a relative viability ([17]; first compound 0.253 µM) of 0.454 and a relative viability ([17]; first compound 0.8 µM) of 0.517. For the same compound, the relative viability ([17]; first compound 2.53 µM) was 0.518, the relative viability ([17]; first compound 8 µM) was 0.528 and the relative viability ([18]; first compound 0.253 µM) was 0.637. For the same compound, the relative viability ([18]; first compound 0.8 µM) was 0.551, the relative viability ([18]; first compound 2.53 µM) was 0.628 and the relative viability ([18]; first compound 8 µM) was 0.505. It also gave a relative viability ([19]; first compound 0.253 µM) of 0.409, a relative viability ([19]; first compound 0.8 µM) of 0.488 and a relative viability ([19]; first compound 2.53 µM) of 0.497. For the same compound, the relative viability ([19]; first compound 8 µM) was 0.206, the relative viability ([20]; first compound 0.253 µM) was 0.338 and the relative viability ([20]; first compound 0.8 µM) was 0.371. It also gave a relative viability ([20]; first compound 2.53 µM) of 0.405, a relative viability ([20]; first compound 8 µM) of 0.359 and a relative viability ([21]; first compound 0.253 µM) of 0.827. It also gave a relative viability ([21]; first compound 0.8 µM) of 0.958, a relative viability ([21]; first compound 2.53 µM) of 0.949 and a relative viability ([21]; first compound 8 µM) of 0.613. It also gave a relative viability ([22]; first compound 0.253 µM) of 0.462, a relative viability ([22]; first compound 0.8 µM) of 0.522 and a relative viability ([22]; first compound 2.53 µM) of 0.671. It also gave a relative viability ([22]; first compound 8 µM) of 0.563, a relative viability ([23]; first compound 0.253 µM) of 0.528 and a relative viability ([23]; first compound 2.53 µM) of 0.523. The relative viability ([23]; first compound 8 µM) was 0.42, the relative viability ([24]; first compound 0.253 µM) was 0.613 and the relative viability ([24]; first compound 0.8 µM) was 0.53. It also gave a relative viability ([24]; first compound 2.53 µM) of 0.505, a relative viability ([24]; first compound 8 µM) of 0.423 and a relative viability ([25]; first compound 0.253 µM) of 0.556. For the same compound, the relative viability ([25]; first compound 0.8 µM) was 0.678, the relative viability ([25]; first compound 2.53 µM) was 0.678 and the relative viability ([25]; first compound 8 µM) was 0.773.
